Assay results reported in paper PMC7400207, “It Takes Two: Dimerization Is Essential for the Broad-Spectrum Predatory and Defensive Activities of the Venom Peptide Mp1a from the Jack Jumper Ant Myrmecia pilosula” (Biomedicines, 2020).
In brackets after ≈: the same amount, converted by molar mass. Several values for one entry are separate records, joined by “and”; a condition that tells them apart may be missing. Identical values can stand only once.

What was measured:
[1] = system: F11 cells; test: FLIPR calcium assay, activation of F11 cells; type: cell-based; conditions: F11 cells, FLIPR
Protocol: F11 cells were cultured as previously described. Cells were maintained on Ham’s F12 media supplemented with 10% fetal bovine serum (FBS), 100 µM hypoxanthine, 0.4 µM aminopterin, and 16 µM thymidine (Hybri-MaxTM, Sigma Aldrich, North Ryde, Australia). Then, 384-well imaging plates (Corning) were seeded 48 h prior to imaging resulting in 90–95% confluence at imaging. Cells were incubated for 30 min with the Calcium 4 assay component A according to the manufacturer’s instructions (Molecular Devices, Sunnyvale, CA, USA) in physiological salt solution (PSS; composition in mM: 140 NaCl, 11.5 D-glucose, 5.9 KCl, 1.4 MgCl2, 1.2 NaH2PO4, 5 NaHCO3, 1.8 CaCl2, 10 HEPES) at 37°C. Fluorescence was measured using a fluorescent imaging plate reader (FLIPR^TETRA) equipped with a CCD camera (Excitation: 470–490 nm, Emission: […]) (Molecular Devices, Sunnyvale, CA, USA). Signals were read every second for 10 s before, and 300 s after the addition of peptides in PSS supplemented with 0.1% bovine serum albumin. All data are the mean ± SEM of assays performed in triplicate. Maximum–minimum fluorescence in the 300 s period after peptide addition was recorded as the response. Concentration–response data were fitted with a four-parameter Hill equation (variable slope) using GraphPad Prism 8 to obtain effective concentration (EC50) values.

[2] = system: mouse dorsal root ganglion (DRG) cells; test: Calcium imaging of mammalian sensory neurons; type: cell-based; conditions: 1 µM peptide, Fluo-4 calcium imaging, neuronal and non-neuronal cells
Protocol: Calcium imaging of a heterogenous population of mouse dorsal root ganglion (DRG) sensory neurons was performed as previously described. In brief, dorsal root ganglion (DRG) cells isolated from 4–8-week-old male C57BL/6 mice under ethics approval TRI/IMB/093/17 (University of Queensland Animal Ethics Committee, approval date 31/03/2017) were dissociated and then plated in Dulbecco’s modified Eagle’s medium (Gibco, Grand Island, NY, USA) containing 10% fetal bovine serum (FBS; Assaymatrix, Melbourne, Australia) and penicillin/streptomycin (Gibco) on a 96-well poly-D-lysine–coated culture plate (Corning, Lowell, MA, USA), and maintained overnight. Cells were loaded with Fluo-4 AM calcium indicator as per the manufacturer’s instructions (Thermo Fisher Scientific, Grand Island, NY, USA). After loading for 1 h, the dye solution was replaced with assay solution (Hanks’ balanced salt solution and 20 mM HEPES). Fluorescence corresponding to intracellular calcium ([Ca^2+]i) of typically 100–150 DRG cells per experiment was monitored in parallel using a Nikon Ti-E deconvolution inverted microscope, equipped with a Lumencor Spectra LED light source. Images were acquired at a 20× objective at one frame/s (excitation 485 nm; emission 521 nm). For each experiment, baseline fluorescence was monitored for 30 s and then a wash of assay solution was applied.

[3] = system: Drosophila melanogaster; test: Drosophila melanogaster microinjection assay; type: in vivo; conditions: intrathoracic injection, 50 nL, adult female flies, lethality at 24 h; three dose-response curves, ± SEM
Protocol: The insecticidal activity of the chemically synthesized 1a and analogues thereof were determined by injection into adult female D. melanogaster aged 3–5 days (mass 0.7–0.9 mg) as described previously. Analogues were dissolved in water and intrathoracically injected using pulled glass capillaries at a volume of 50 nL per fruit fly, and the results were compared against an equivalent injection volume of water alone. All injections were performed in the morning or early afternoon. At 24 h post-injection flies were monitored for lethality. Dose–response curves were constructed using 7–10 doses per analogue (each dose tested in eight flies) and three separate dose–response curves were constructed for each analogue. The lethality in the groups receiving the analogues were adjusted using the respective control group lethality using the Henderson-Tilton formula [20]. The median lethal dose (LD50) of each analogue was calculated based on the three dose–response curves using GraphPad Prism 8.0 [21]. One-way ANOVA followed by Dunnett’s multiple comparison test were used to compare LD50 values.

[4] = system: HEK293 cells; conditions: HEK293, 24 h, resazurin; cited from earlier work
Protocol: Table 2 Summary of bioassay data for synthetic Mp1a and analogues, including effective concentration (EC50) for activation of F11 cells, concentrations that caused 50% inhibition (IC50) for inhibition of larval development of H. contortus; median lethal dose (LD50) for lethal insecticidal effects on D. melanogaster; concentrations required to induce 50% cell death (CC50) for effects on viability o | column: Cytotoxicity (CC50 µM) ^b

[5] = system: E. coli ATCC 25922; conditions: taken from Dekan et al.; cited from earlier work
[6] = system: K. pneumoniae ATCC 700603; conditions: taken from Dekan et al.; cited from earlier work
[7] = system: K. pneumoniae ATCC BAA-2146; conditions: taken from Dekan et al.; cited from earlier work
[8] = system: A. baumannii ATCC 19606; conditions: taken from Dekan et al.; cited from earlier work
[9] = system: P. aeruginosa ATCC 27853; conditions: taken from Dekan et al.; cited from earlier work
[10] = system: P. aeruginosa FADDI-PA70; conditions: taken from Dekan et al.; cited from earlier work
[11] = system: S. aureus ATCC 43300; conditions: taken from Dekan et al.; cited from earlier work
[12] = system: S. aureus NRS 1; conditions: taken from Dekan et al.; cited from earlier work
[13] = system: S. aureus NRS 17; conditions: taken from Dekan et al.; cited from earlier work
[14] = system: S. aureus NARSA-VRS1; conditions: taken from Dekan et al.; cited from earlier work
[15] = system: S. pneumoniae ATCC 700677; conditions: taken from Dekan et al.; cited from earlier work

Question: Which “Concentration at which cytolysis (rapid increase in fluorescence followed by decrease to or below baseline) was observed” value [1] does the source give for `CC[C@H](C)[C@H](N)C(=O)N[C@@H](CC(=O)O)C(=O)N[C@@H](Cc1c[nH]c2ccccc12)C(=O)N[C@@H](CCCCN)C(=O)N[C@@H](CCCCN)C(=O)N[C@H](C(=O)N[C@@H](CC(=O)O)C(=O)N[C@@H](Cc1c[nH]c2ccccc12)C(=O)N[C@@H](CCCCN)C(=O)N[C@@H](CCCCN)C(=O)N[C@H](C(=O)N[C@@H](CO)C(=O)N[C@@H](CCCCN)C(=O)N[C@@H](CCCCN)C(=O)N[C@H](C(=O)N[C@H]1CSSC[C@@H](C(=O)N[C@@H](CCCCN)C(=O)N[C@@H](CCCCN)C(=O)N[C@H](C(=O)N[C@@H](CC(C)C)C(=O)N[C@@H](CCCCN)C(=O)N[C@@H](CCC(N)=O)C(N)=O)C(C)C)NC(=O)[C@H](C(C)C)NC(=O)[C@H]([C@@H](C)O)NC(=O)[C@H](CCCCN)NC(=O)[C@H](C(C)C)NC(=O)[C@H](CC(C)C)NC(=O)[C@H](C(C)C)NC(=O)[C@@H](NC(=O)[C@@H](NC(=O)CNC(=O)[C@H](CCCCN)NC(=O)[C@H](CO)NC(=O)[C@@H](NC(=O)[C@H](CC(C)C)NC(=O)CNC(=O)[C@@H](NC(=O)[C@@H](N)CC(C)C)[C@@H](C)CC)C(C)C)[C@@H](C)O)CSSC[C@@H](C(=O)N[C@@H](CCCCN)C(=O)N[C@@H](Cc2ccccc2)C(=O)N[C@@H](CC(C)C)C(N)=O)NC(=O)[C@H](C)NC(=O)[C@H](CCCCN)NC(=O)[C@H](CC(C)C)NC(=O)[C@H](CCSC)NC(=O)[C@H](C(C)C)NC(=O)[C@H](CCCCN)NC1=O)[C@@H](C)O)C(C)C)C(C)C` [Analogue 1a, ∆-myrtoxin-Mp1a] here?
Answer: ≥ 1 µM

Question: What about the EC50 ([1]; Calcium 4 dye, max-min fluorescence in 300 s after peptide addition, PSS with 0.1% BSA, mean ± SEM, triplicate, read-out: Neuronal Cell Activation (EC50)) of the same molecule?
Answer: 850 ± 30 nM

Question: And the “Effect on [Ca2+]i of DRG cells” value [2]?
Answer: rapid increase in [Ca^2+]i in all cells

Question: And the “Insecticidal Activity (LD50)” value [3]?
Answer: 260 pmol/g and 260.1 ± 16.6 pmol/g

Question: What about the “Cytotoxicity (CC50)” value [4] of the same molecule?
Answer: 600 nM

Question: And the MIC [5]?
Answer: 0.1 to 0.2 µM

Question: And the MIC [6]?
Answer: 0.4 to 0.8 µM

Question: What about the MIC [7] of the same molecule?
Answer: 0.1 to 0.2 µM

Question: And the MIC [8]?
Answer: 0.025 µM (≈ 0.14 µg/mL)

Question: What about the MIC [9] of the same molecule?
Answer: 0.4 to 0.8 µM

Question: And the MIC [10]?
Answer: 0.8 µM (≈ 4.49 µg/mL)

Question: What about the MIC [11] of the same molecule?
Answer: 0.8 µM (≈ 4.49 µg/mL)

Question: What about the MIC [12] of the same molecule?
Answer: 3.2 µM (≈ 17.9 µg/mL)

Question: What about the MIC [13] of the same molecule?
Answer: 0.4 to 0.8 µM

Question: And the MIC [14]?
Answer: 3.2 to 6.4 µM

Question: What about the MIC [15] of the same molecule?
Answer: 0.4 to 0.8 µM
